This note sets out measurements from patent US11767322B2 (BRISTOL-MYERS SQUIBB COMPANY, priority 2020, dated 2023).

Test [1] relates to MLKL phosphorylation in HT29-L23 human colorectal adenocarcinoma cells. Description: MLKL phosphorylation high-content assay. The class given is cell-based.
For test [2], the target named is T1, His-GST-TVMV-hRIPK1(1-324) (Homo sapiens, UniProt Q13546).
T1 construct: The coding region of human RIPK1(1-324) flanked by NdeI site at 5′ end; made in house; host or cells: Spodoptera frugiperda Sf9 insect cells (baculovirus, Bac-to-Bac)
T1 sequence (Q13546 1-324): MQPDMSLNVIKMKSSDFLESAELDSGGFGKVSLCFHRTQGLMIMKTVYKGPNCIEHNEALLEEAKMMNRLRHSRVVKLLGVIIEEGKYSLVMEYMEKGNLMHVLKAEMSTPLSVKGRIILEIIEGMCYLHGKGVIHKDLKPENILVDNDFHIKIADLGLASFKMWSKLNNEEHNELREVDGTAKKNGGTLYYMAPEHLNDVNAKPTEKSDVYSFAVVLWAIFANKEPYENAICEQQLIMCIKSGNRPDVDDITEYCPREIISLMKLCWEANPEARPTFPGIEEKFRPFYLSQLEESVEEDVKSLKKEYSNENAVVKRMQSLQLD
Description: biochemical. The class given is binding.

The mark [3] stands for this setting: read-out: pMLKL IC50, HT29-L23 cells, necroptosis induced with TNFα, SMAC mimetic and Z-VAD, 6 h, maximal inhibition defined by Nec1s.
The mark [4] stands for this setting: HTRF probe displacement, 1 h at rt, read-out: RIPK1 IC50.
[5] abbreviates: Table 22, compounds of the present invention, read-out: RPIK1 IC50.
[6] abbreviates: Homo sapiens, 6 h, read-out: pMLKL IC50, HT29-L23 cells, necroptosis induced with TNFα, SMAC mimetic and Z-VAD, 6 h, maximal inhibition defined by Nec1s.
Where [7] appears, read: Homo sapiens, read-out: pMLKL IC50, Table 22, compounds of the present invention.

Like-named read-outs stand apart in the source and are kept apart here.

In general, IC50 refers to the point on the concentration scale where inhibition reaches its midpoint. `Nc1nc2cc(-c3ccc(Cl)c(C(=O)NCC(F)(F)C(O)c4cccc(C(F)(F)F)n4)c3F)ccn2n1` (single isomer, unassigned) [Example 254, 3-(2-amino-[1,2,4]triazolo[1,5-a]pyridin-7-yl)-6-chloro-N-(2,2-difluoro-3-hydroxy-3-(6-(trifluoromethyl)pyridin-2-yl)propyl)-2-fluorobenzamide]: the half-inhibitory concentration (IC50) in test [1] (setting [3]) stood at 4.1 nM; in test [2] (setting [4]), 3.5 nM.

For `Cc1ccc(-c2ccn3nc(N)nc3c2)c(F)c1C(=O)NCC(C)(F)C(O)c1ccc(F)cc1` (single isomer, unassigned) [Example 203, 3-(2-amino-[1,2,4]triazolo[1,5-a]pyridin-7-yl)-2-fluoro-N-(2-fluoro-3-(4-fluorophenyl)-3-hydroxy-2-methylpropyl)-6-methylbenzamide], the half-inhibitory concentration (IC50) in test [1] (setting [3]) came out at 2.7 nM; in test [2] (setting [4]), 5.6 nM.

For `Cc1ccc(-c2ccn3nc(N)nc3c2)c(F)c1C(=O)NCC(O)C(F)(F)c1ccc(F)cc1` (single isomer, unassigned) [Example 291, 3-(2-amino-[1,2,4]triazolo[1,5-a]pyridin-7-yl)-N-(3,3-difluoro-3-(4-fluorophenyl)-2-hydroxypropyl)-2-fluoro-6-methylbenzamide], the half-inhibitory concentration (IC50) amounted to 2.4 nM in test [1] (setting [3]); 2.4 nM in test [1] (read-out: pMLKL IC50, Table 22, compounds of the present invention); 1 nM in test [2] (setting [4]); 1 nM in test [2] (setting [5]).

In the case of `Cc1ccc(-c2ccn3nc(N)nc3c2)c(F)c1C(=O)NCCC(O)c1cccc(F)c1` (single isomer, unassigned) [Example 64, 3-(2-amino-[1,2,4]triazolo[1,5-a]pyridin-7-yl)-2-fluoro-N-(3-(3-fluorophenyl)-3-hydroxypropyl)-6-methylbenzamide], the IC50 in test [1] (setting [3]) was 8 nM; in test [2] (setting [4]), 12 nM.

Consider `[2H]C([2H])(CC([2H])(O)c1ccc(Cl)cc1)NC(=O)c1c(Cl)ccc(-c2ccn3nc(N)nc3c2)c1F` (single isomer, unassigned) [Example 76, 3-(2-amino-[1,2,4]triazolo[1,5-a]pyridin-7-yl)-6-chloro-N-(3-(4-chlorophenyl)-3-hydroxypropyl-1,1,3-d3)-2-fluorobenzamide], for which the half-maximal inhibitory concentration (IC50) came out at 3.3 nM in test [1] (setting [3]) and 1.5 nM in test [2] (setting [4]).

Regarding `CC(O)(c1ccc(F)cc1)C(F)(F)CNC(=O)c1c(Cl)ccc(-c2ccn3nc(N)nc3c2)c1F` (single isomer, unassigned) [Example 88, 3-(2-amino-[1,2,4]triazolo[1,5-a]pyridin-7-yl)-6-chloro-N-(2,2-difluoro-3-(4-fluorophenyl)-3-hydroxybutyl)-2-fluorobenzamide], the results for the IC50 in test [1] (setting [6]) and in test [2] (setting [4]) were 2.4 nM and 3.6 nM, respectively.

As for `Cc1ccc(-c2ccn3nc(N)nc3c2C)c(F)c1C(=O)NCC[C@H](O)c1ccc(Cl)cc1` (single isomer, unassigned; enantiomer 2) [Example 138], the 50% inhibitory concentration (IC50) in test [1] (HT29-L23 cells, necroptosis induced with TNFα, SMAC mimetic and Z-VAD, 6 h, maximal inhibition defined by Nec1s, read-out: pMLKL IC50) came out at 0.2 nM; in test [2] (setting [4]), 11 nM.

With `Nc1nc2cc(-c3ccc(Cl)c(C(=O)NCC(F)(F)C(O)c4cccc(Cl)n4)c3F)ccn2n1` (single isomer, unassigned) [Example 262, 3-(2-amino-[1,2,4]triazolo[1,5-a]pyridin-7-yl)-6-chloro-N-(3-(6-chloropyridin-2-yl)-2,2-difluoro-3-hydroxypropyl)-2-fluorobenzamide], the IC50 was 45 nM in test [1] (setting [6]) and 14 nM in test [2] (setting [4]).

On to `Cc1ccc(-c2ccn3nc(N)nc3c2)c(F)c1C(=O)NCCC(O)c1ccc(F)cc1` (stereo not drawn) [Example 49, 3-(2-amino-[1,2,4]triazolo[1,5-a]pyridin-7-yl)-2-fluoro-N-(3-(4-fluorophenyl)-3-hydroxypropyl)-6-methylbenzamide], for which the IC50 in test [1] (setting [6]) turned out to be 2.6 nM; in test [1] (setting [7]), 2.6 nM; in test [2] (setting [4]), 2.5 nM; in test [2] (setting [5]), 2.5 nM.

In the case of `Nc1nc2cc(-c3ccc(Cl)c(C(=O)NCC(F)(F)C(O)c4cccc(F)c4)c3F)ccn2n1` (single isomer, unassigned) [Example 168, 3-{2-amino-[1,2,4]triazolo[1,5-a]pyridin-7-yl}-6-chloro-N-[2,2-difluoro-3-(3-fluorophenyl)-3-hydroxypropyl]-2-fluorobenzamide], the concentration for half-maximal inhibition (IC50) in test [1] (setting [3]) was 1.1 nM; in test [2] (setting [4]), 0.3 nM.

Take `Nc1nc2cc(-c3ccc(Cl)c(C(=O)NCCC(O)c4ccc(F)cc4)c3F)ccn2n1` (stereo not drawn) [Example 78, 3-(2-amino-[1,2,4]triazolo[1,5-a]pyridin-7-yl)-6-chloro-2-fluoro-N-(3-(4-fluorophenyl)-3-hydroxypropyl)benzamide]: the half-inhibitory concentration (IC50) in test [1] (setting [6]) was 9.9 nM; in test [1] (setting [7]), 9.9 nM; in test [2] (setting [4]), 19 nM; in test [2] (setting [5]) it was 19 nM.

As for `Cc1cc(F)c(-c2ccn3nc(N)nc3c2)cc1C(=O)NCC(F)(F)C(C)(O)c1ccc(Cl)cc1` (single isomer, unassigned) [Example 225, 5-(2-amino-[1,2,4]triazolo[1,5-a]pyridin-7-yl)-N-(3-(4-chlorophenyl)-2,2-difluoro-3-hydroxybutyl)-4-fluoro-2-methylbenzamide], the concentration for half-maximal inhibition (IC50) in test [1] (setting [6]) amounted to 3.8 nM; in test [2] (setting [4]), 19 nM.

As for `Cc1cc(F)c(-c2ccn3nc(N)nc3c2)cc1C(=O)NCCC(O)c1ccc(Cl)cn1` (stereo not drawn) [Example 5, 5-(2-amino-[1,2,4]triazolo[1,5-a]pyridin-7-yl)-N-(3-(5-chloropyridin-2-yl)-3-hydroxypropyl)-4-fluoro-2-methylbenzamide], the half-maximal inhibitory concentration (IC50) is 2.6 nM in test [1] (setting [6]) and 6.4 nM in test [2] (setting [4]).

Turning to `[2H]C([2H])([2H])c1ccc(-c2ccn3nc(N)nc3c2)c(F)c1C(=O)NCC1(C(O)c2ccc(F)cc2)CC1` (single isomer, unassigned) [Example 307, 3-(2-amino-[1,2,4]triazolo[1,5-a]pyridin-7-yl)-2-fluoro-N-((1-((4-fluorophenyl) (hydroxy)methyl)cyclopropyl)methyl)-6-(methyl-d3)benzamide], the IC50 in test [1] (setting [6]) worked out at 14 nM; in test [2] (setting [4]) it was 9.6 nM.

For `Cc1ccc(-c2ccn3nc(N)nc3c2)c(F)c1C(=O)NCC(F)(F)C(O)c1c(F)cc(F)cc1F` (single isomer, unassigned) [Example 284, 3-(2-amino-[1,2,4]triazolo[1,5-a]pyridin-7-yl)-N-(2,2-difluoro-3-hydroxy-3-(2,4,6-trifluorophenyl)propyl)-2-fluoro-6-methylbenzamide], the half-inhibitory concentration (IC50) in test [1] (setting [3]) was 1.1 nM; in test [2] (setting [4]) it was 3.5 nM.

Regarding `[2H]C([2H])([2H])c1ccc(-c2ccn3nc(N)nc3c2)c(F)c1C(=O)NCC(F)(F)C(C)(O)c1ccc(Cl)cc1` (single isomer, unassigned) [Example 253, 3-(2-amino-[1,2,4]triazolo[1,5-a]pyridin-7-yl)-N-(3-(4-chlorophenyl)-2,2-difluoro-3-hydroxybutyl)-2-fluoro-6-(methyl-d3)benzamide], the values for the half-maximal inhibitory concentration (IC50) in test [1] (setting [3]) and in test [2] (setting [4]) were 1.2 nM and 2.4 nM, respectively.

As for `Nc1nc2cc(-c3ccc(Cl)c(C(=O)NCC(F)(F)C(O)c4ccc(Cl)cc4F)c3F)ccn2n1` (single isomer, unassigned) [Example 162, 3-(2-amino-[1,2,4]triazolo[1,5-a]pyridin-7-yl)-6-chloro-N-(3-(4-chloro-2-fluorophenyl)-2,2-difluoro-3-hydroxypropyl)-2-fluorobenzamide], the IC50 in test [1] (setting [3]) worked out at 3.1 nM; in test [2] (setting [4]), 1.6 nM.

Regarding `Nc1nc2cc(-c3ccc(Cl)c(C(=O)NCC(F)(F)C(O)c4ccc(Cl)cc4F)c3F)ccn2n1` (single isomer, unassigned) [Example 163, 3-(2-amino-[1,2,4]triazolo[1,5-a]pyridin-7-yl)-6-chloro-N-(3-(4-chloro-2-fluorophenyl)-2,2-difluoro-3-hydroxypropyl)-2-fluorobenzamide], the IC50 in test [1] (setting [3]) came out at 1.3 nM; in test [2] (setting [4]), 0.3 nM.

With `[2H]C([2H])([2H])OC(c1ccc(F)cc1)C(F)(F)CNC(=O)c1c(C)ccc(-c2ccn3nc(N)nc3c2)c1F` (single isomer, unassigned) [Example 235, 3-(2-amino-[1,2,4]triazolo[1,5-a]pyridin-7-yl)-N-(2,2-difluoro-3-(4-fluorophenyl)-3-(methoxy-d3)propyl)-2-fluoro-6-methylbenzamide], the concentration for half-maximal inhibition (IC50) in test [1] (setting [6]) turned out to be 0.6 nM; in test [2] (setting [4]), 4.3 nM.

Consider `[2H]C([2H])([2H])c1ccc(-c2ccn3nc(N)nc3c2)c(F)c1C(=O)NCC(F)(F)C(O)(c1ccc(F)cc1)C([2H])([2H])[2H]` (single isomer, unassigned) [Example 243, 3-(2-amino-[1,2,4]triazolo[1,5-a]pyridin-7-yl)-N-(2,2-difluoro-3-(4-fluorophenyl)-3-hydroxybutyl-4,4,4-d3)-2-fluoro-6-(methyl-d3)benzamide], for which the concentration for half-maximal inhibition (IC50) in test [1] (setting [6]) is 1.2 nM; in test [2] (setting [4]) it was 4.7 nM.

As to `Cc1cc(F)c(-c2ccn3nc(N)nc3c2)cc1C(=O)NCC(F)(F)C(C)(O)c1ccc(Cl)cc1` (single isomer, unassigned) [Example 226, 5-(2-amino-[1,2,4]triazolo[1,5-a]pyridin-7-yl)-N-(3-(4-chlorophenyl)-2,2-difluoro-3-hydroxybutyl)-4-fluoro-2-methylbenzamide], the IC50 is 2.2 nM in test [1] (setting [3]) and 8.3 nM in test [2] (setting [4]).
